Numbered stars: 1 amine (or outer) side, 2 acyl side, 3 side chain; on linkers, the order of the positions; unused ones are H or OH. Bridge positions count the residues as written; N and C are the ends. Square brackets hold non-standard residues; d marks the D form. Peptide text beside a SMILES is read from it. X1 = CC(C)CCCCCCCCC[C@H](CC(=O)[*:1])O[*:2]
Columns and labels:
[1] = tested on: 3-ketoacyl-CoA thiolase; settings: cited from earlier work
[2] = 100, pH 10
Experimental: Production of rhamnolipid biosurfactant was tested in engineered strains using the oil spreading assay (Fang et al DOE report 2007). Cells were grown three days at 30° C. in YCA-10 medium (per liter: 25 g NaCl, 5 g yeast extract, 5 g casamino Acids, 5 g Na2CO3, 1 g sodium glutamate, 1 g NH4Cl, 1 g KH2PO4, 1 g KCl, 200 mg MgSO4.7H2O, 36 mg FeCl2.4H2O, 0.36 mg MnCl.4H2O, adjusted to pH10.0 with KOH) containing 5 μg/ml chloramphenicol. For oil spreading assays, 50 mls of distilled water was dispensed into a 15 cm petri dish and 50 μl of petroleum oil was added to the surface of the water. A 10 μl drop of medium or culture suspension was added to the surface of the oil, and the diameter of the clear zone (if any) was measured after 2 minutes.

[3] = molecular target: T1, 3-ketothiolase I (Rattus norvegicus, UniProt P13437); settings: cited from earlier work
T1 sequence (P13437 1-397): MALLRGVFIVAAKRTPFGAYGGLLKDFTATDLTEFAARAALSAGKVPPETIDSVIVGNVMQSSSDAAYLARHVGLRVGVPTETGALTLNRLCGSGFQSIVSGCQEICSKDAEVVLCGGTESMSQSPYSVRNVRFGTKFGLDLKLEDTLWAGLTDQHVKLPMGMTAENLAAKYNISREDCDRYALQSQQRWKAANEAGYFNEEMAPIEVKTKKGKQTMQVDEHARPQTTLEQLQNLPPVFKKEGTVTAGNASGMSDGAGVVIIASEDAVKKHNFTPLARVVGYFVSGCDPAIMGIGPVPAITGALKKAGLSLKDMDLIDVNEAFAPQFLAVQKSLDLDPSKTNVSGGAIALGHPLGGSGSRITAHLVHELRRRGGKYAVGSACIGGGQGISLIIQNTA

[4] = tested on: Rhodococcus rhodochrous ATCC #53968; assay: Digestion of Red River crude oil with and without beta-oxidation inhibitors; GC of methyl esters of extracted organic acids; type: cell-based; settings: for Total GC (all peaks integrated by the GC integrator): 0.31 g oil sample; for conv. To umoles FA: approximately 1.0 micromoles per 100 area units; for Cal. AN (calculated acid number): estimated from GC areas
Experimental: (§1) An oil degrading microorganism was used to evaluate the use of chemical inhibitors to slow the utilization of hydrocarbons in petroleum. In a non-limiting example, three different chemical compounds that have been reported to inhibit beta-oxidation were tested in oil and culture medium on a petroleum sample with a strain of Rhodococcus rhodochrous ATCC #53968 in m9 minimal medium. To test the ability of each chemical inhibitor to slow the consumption of fatty acids a culture of bacteria was grown on a crude oil sample for a period of three days with crude petroleum oil as the only carbon source. Four separate flasks were set up, each with an oil to aqueous media ratio of 1 to 5 (10 ml of crude oil to 50 ml of culture medium). Each of the three chemical inhibitors was added to a separate flask and a fourth flask was allowed to digest without the addition of a chemical inhibitor as a control. The flasks were shaken at a room temperature of about 25° C. under aerobic conditions. The progress of the microbial digestion was monitored by the optical density at 600 nm and by visual inspection of the brown oil color in the aqueous phase. Three days after the addition of inhibitors, or a total of six days of incubation with oil, a small sample of oil (0.31 g) was removed. A second sample of the same size was remover after another 6 days. The organic acids were extracted from each oil sample with 1% NaOH in 70% ethanol. The samples were shaken vigorously for one minute. The aqueous extract material was then extracted with hexane to remove any trace of oil. The samples of extracted organic acids were then dried under vacuum and converted to methyl esters with BF3 in methanol.
The mixtures of methyl esters were analyzed by GC (gas chromatography) using a HP (Hewlett Packard) 5890 GC with an Agilent Technologies capillary column, HP-5 (crosslinked 5% PH) ME Siloxane 0.25 micrometer coating with a length of 30 meter and a column ID (internal diameter) of 0.32 mm. Helium was used as a carrier gas. Detection was by a FID detector and integration of peak areas was done with a HP 3396 integrator. The temperature program held an initial temperature of 40° C. for 1.0 minutes then increased at 15 degrees per minute to 280° C., and finally held at a temperature of 280° C. for 5 minutes. To quantify the amount of organic acids extracted by this procedure, a stock solution of 2-bromooctanoate and 2-bromohexadecanoate were added to a sample of undigested Red River crude petroleum oil and then extracted by the same procedure as the bio-digested oil samples. The average area for theses two organic acids was used to estimate the amount of organic acids in micromoles per area unit determined by the GC integrator. The number was calculated to be approximately 1.0 micromoles per 100 area units. The area units for each of the GC peaks are list in Table 2. This number was used to estimate the micromoles organic acids extracted from the oil. This estimate was used to calculate the number of mg of KOH that equaled the number of micromoles of organic acid estimated. This number is listed on the last row in Table 2 as the calculated AN (acid number) for each digestion experiment. These estimated numbers are only based on organic acids that are hydrophobic enough to stay in the oil phase and not move into the aqueous phase. Organic acids measured include the carboxylic acids made by the bacteria and that have been secreted out of the cell and have migrated back to the oil phase. They are also hydrocarbons that are small enough to be extracted into the ethanol aqueous extraction solvent. This number is likely to be less than the total acid number (TAN), a measure often used to evaluate crude petroleum for amenability to alkaline waterflooding.
The earlier eluting peaks are believed to represent methyl ester of lighter hydrocarbon carboxylic acids and the later eluting peaks are believed to represent methyl ester of the heavier organic acids. […]

[5] = tested on: Rhodococcus rhodochrous ATCC #53968; assay: Growth of bacteria on crude oil with inhibitors, optical density at 600 nm; type: cell-based
Experimental: as §1
Digestion with the bacteria increases the total amount of carboxylic acids in all the samples. The digestions with the chemical beta-oxidation inhibitors produce about the same or a little more total methyl ester peaks than the bacterial digestion without an inhibitor. […] The later eluting peaks increase at a faster rate with the inhibitors than without. For example, the 12 day sample with no inhibitor increase from 5.9 to 45.9 area units for peaks up to 13 minutes. The sample with the acrylic acid inhibitor has an increase of from 5.9 to 43.7 area units, which is less than without inhibitor. The later eluting peaks increase from 3.6 to 14.3 without the inhibitor, but with acrylic acid the later peak areas increase to 22.5 area units. […] After 6 days of digestion the optical density had reached 2.23 for the uninhibited digestion as compared to 0.49 for the acrylic acid inhibited sample and 1.84 for the 2-bromooctanoic acid and 2.4 for the 2-bromohexadeconoic acid. After 12 days of digestion the uninhibited sample had reached 4.0 and the acrylic acid had increased to 1.7 and 2.2 and 2.4 for the other two inhibitors. Therefore, by this experimental analysis one can determine which inhibitors increase the carboxylic acid content or the acid number of the oil fastest with the least amount of oil consumption. The oil consumption can be determined by quantitation of remaining oil or by growth of bacteria were oil is the only carbon source. It appears that all the inhibitors helped reduce the utilization of fatty acids and the consumption of oil while producing an increase in acid number.

[6] = tested on: Rhodococcus rhodochrous ATCC #53968; assay: End of digestion: oil and aqueous volumes, acid number by alcoholic alkaline extraction and back titration; type: cell-based; settings: one ml of oil, alcoholic alkaline extraction, back titration; acrylic acid value per gram of oil emulsion
Experimental: as §1, with “The samples were shaken vigorously for one minute. The aqueous extract material was then extracted with hexane to remove any trace of oil. The samples of extracted organic acids were then dried under vacuum and converted to methyl esters with BF3 in methanol.” left out
At the end of the experiment the oil and water were separated and the volume determined. […] This would have under reported the amount of methyl esters determined by GC analysis. The amount of aqueous phase was determined to be 22.5 ml for the acrylic acid sample and 46 ml, 48 ml and 47.5 ml for the others. […] The calculated acid number for the uninhibited digestion was 5 mg of KOH per gram. The other two inhibited digestions were analyzed to be 4.5 mg for the 2-bromooctanoic acid and 6.5 for the 2-bromohexadecanoic acid inhibited digestion. The undigested oil was determined to have an acid number of 6.5 mg of KOH by analysis of a one gram sample and a 10 gram sample. […]

O=C(O)c1ccccc1O [Salicylic acid]
effect on 3-ketoacyl-CoA thiolase in P. fluorescens [1]: inhibit

CC(C)CCCCCCCCC[C@@H]1CC(=O)N[C@@H](CCC(=O)O)C(=O)N[C@@H](CC(C)C)C(=O)N[C@H](CC(C)C)C(=O)N[C@@H](C(C)C)C(=O)N[C@@H](CC(=O)O)C(=O)N[C@H](CC(C)C)C(=O)N[C@@H](CC(C)C)C(=O)O1 [Surfactin (purified)] (EL[dL]VD[dL]L; linker N-C via X1)
Clear zone diameter [2]: 13 mm

CCCCCCC(Br)C(=O)O (racemic) [DL-2-bromooctanoate]
effect on 3-ketothiolase I [3]: complete and irreversible inactivation

CCCCCCCCCCCCCCC(Br)C(=O)O (stereo not shown) [Br C16, 2-bromohexadecanoic acid]
GC peak area, retention time 4.5 ([4]; 6 days): 0.226 area units
GC peak area, retention time 5.6 ([4]; 6 days): 1.099 area units
GC peak area, retention time 6.6 ([4]; 6 days): 3.049 area units
GC peak area, retention time 7.6 ([4]; 6 days): 2.553 area units
GC peak area, retention time 8.2 ([4]; 6 days): 0.705 area units
GC peak area, retention time 8.5 ([4]; 6 days): 1.395 area units
GC peak area, retention time 9.4 ([4]; 6 days): 1.131 area units
GC peak area, retention time 10.2 ([4]; 6 days): 1.11 area units
GC peak area, retention time 11 ([4]; 6 days): 4.105 area units
GC peak area, retention time 11.5 ([4]; 6 days): 2.76 area units
GC peak area, retention time 12.5 ([4]; 6 days): 4.8 area units
GC peak area, retention time 13.2 ([4]; 6 days): 1.26 area units
GC peak area, retention time 13.6 ([4]; 6 days): 1.997 area units
GC peak area, retention time 13.8 ([4]; 6 days): 3.211 area units
SubTotal peak area, later peaks eluting after 13 minutes ([4]; 6 days): 6.468 area units
SubTotal peak area, peaks eluting before 13 minutes ([4]; 6 days): 22.933 area units
Total GC area For 1 ml ([4]; 6 days): 1385
Total of all selected peaks ([4]; 6 days): 29.401 area units
Total GC (all peaks integrated by the GC integrator) ([4]; 6 days): 429.5 area units
conv. To umoles FA ([4]; 6 days): 13.85 µmol
Cal. AN (calculated acid number) ([4]; 6 days): 0.78 mg of KOH
GC peak area, retention time 4.2 ([4]; 12 days): 0.354 area units
GC peak area, retention time 4.5 ([4]; 12 days): 0.237 area units
GC peak area, retention time 5.6 ([4]; 12 days): 0.624 area units
GC peak area, retention time 6.6 ([4]; 12 days): 1.498 area units
GC peak area, retention time 7.6 ([4]; 12 days): 1.246 area units
GC peak area, retention time 8.2 ([4]; 12 days): 0.602 area units
GC peak area, retention time 8.5 ([4]; 12 days): 0.624 area units
GC peak area, retention time 9.4 ([4]; 12 days): 0.476 area units
GC peak area, retention time 10.2 ([4]; 12 days): 0.475 area units
GC peak area, retention time 11 ([4]; 12 days): 1.663 area units
GC peak area, retention time 11.5 ([4]; 12 days): 3.922 area units
GC peak area, retention time 12.3 ([4]; 12 days): 3.095 area units
GC peak area, retention time 13 ([4]; 12 days): 2.495 area units
GC peak area, retention time 13.2 ([4]; 12 days): 3.584 area units
GC peak area, retention time 13.4 ([4]; 12 days): 3.088 area units
GC peak area, retention time 13.6 ([4]; 12 days): 2.779 area units
GC peak area, retention time 13.8 ([4]; 12 days): 4.626 area units
GC peak area, retention time 14.2 ([4]; 12 days): 0.762 area units
SubTotal peak area, later peaks eluting after 13 minutes ([4]; 12 days): 17.334 area units
SubTotal peak area, peaks eluting before 13 minutes ([4]; 12 days): 14.816 area units
Total GC area For 1 ml ([4]; 12 days): 828
Total of all selected peaks ([4]; 12 days): 32.15 area units
Total GC (all peaks integrated by the GC integrator) ([4]; 12 days): 256.8 area units
conv. To umoles FA ([4]; 12 days): 8.28 µmol
Cal. AN (calculated acid number) ([4]; 12 days): 0.46 mg of KOH
optical density ([5]; after 6 days of digestion, crude oil only carbon source): 2.4
optical density ([5]; after 12 days of digestion): 2.4
final analysis acid number [6]: 6.5 mg KOH per gram

— patent publication US9290688B2, “Alkaline microbial enhanced oil recovery” (GEO FOSSIL FUELS, LLC, priority 2011, dated 2016)
